In patent US20160122821A1, “GENETIC MARKERS OF ANTIPSYCHOTIC RESPONSE” (SUREGENE, LLC, priority 2013, published 2016):

System: Caucasian patients with schizophrenia (CATIE)
Experiment: Genetic association (linear regression, additive model) of SNP alleles with MMRM-modelled change in PANSS Total Score under antipsychotic treatment, CATIE trial
Type: in vivo, human
Experimental: For the CATIE study, individual cases were diagnosed as having SZ based on DSM-III/IV criteria. Treatment response for all patients was assessed using the Positive and Negative Syndrome Scale (PANSS) (Kay et al., 1987; Kay et al., 1989; Leucht et al., 2005). […] To avoid possible bias in post hoc selection of a treatment response variable, the inventors used the mixed model repeated measures (MMRM) approach developed by van den Oord and coworkers (van den Oord et al., 2009). […] The design of the CATIE study, including details of consent for genetic analyses, has been described in detail by others (Lieberman et al., 2005; Stroup et al., 2003; Sullivan et al., 2008). Only retrospective genetic analyses, judged to be exempt from human studies requirements by an IRB, were conducted in the current study. Consented DNA samples were obtained from the Rutgers University Cell and DNA Repository in collaboration with […]. […] All of these patients self-reported as having exclusively European ancestry. […] Genotyping was performed on a fee for service basis according to Illumina's standard operating procedures. Raw intensity files were processed using Illumina® BeadStudio version 1.7.4 software. […] Only two of these had been previously genotyped in the CATIE sample. […] To allow comparison to previously published PGx findings for CATIE and to avoid possible bias in post-hoc selection of a treatment response variable, the inventors used the mixed model repeated measures (MMRM) approach developed by Van den Oord and coworkers (van den Oord et al., 2009; […] et al., 2011). Briefly, this method models random effects by introducing random slopes for treatment effects, allowing treatment effects to be different across subjects. The MMRM approach serves to increase the statistical power to detect genetic associations by increasing the precision in measuring change in PANSS Total Score (PANSS-T) by accounting for variance due to baseline PANSS-T, and treatment, as well as smoothing out the random fluctuations in PANSS-T between visits due to various uncontrolled variables. […] Bozeman, Mont.). Quantile-Quantile (QQ) plots were prepared using the R statistical package version 2.14.1. For comparison purposes, original CATIE-provided SNP genotypes in specific genes were evaluated using the same genetic analysis. Haplotype association integrating newly generated and original genotypes for specific regions was carried out in SVS using haplotype blocks predefined by Haploview software. […] For each of the SNPs listed the reference SNP (rs) number is provided, which provides the known sequence context for the given SNP (see, e.g., National Center for Biotechnology Information (NCBI) SNP database available on the world wide web at ncbi.nlm.nih.gov/snp).

Structure (SMILES): Cc1cc2c(s1)Nc1ccccc1N=C2N1CCN(C)CC1 [Olanzapine, olanzapine]
- Beta (PANSS) (ADAMTS9-AS2 rs17071651 allele C): −3.03 PANSS
- Beta (PANSS) (AGAP1 rs4663220 allele T): −3.07 PANSS
- Beta (PANSS) (ANK3 rs2893823 allele A): −4.47 PANSS
- Beta (PANSS) (ANK3 rs10821660 allele G): −4.45 PANSS
- Beta (PANSS) (APCDD1 rs1045584 allele G): −3.41 PANSS
- Beta (PANSS) (ARHGAP31 rs751607 allele A): −4.30 PANSS
- Beta (PANSS) (ARVCF rs2238794 allele C): −3.11 PANSS
- Beta (PANSS) (ATP10A rs2291351 allele A): −4.99 PANSS
- Beta (PANSS) (BIK rs5996274 allele A): −4.94 PANSS
- Beta (PANSS) (CA10 rs741682 allele A): −5.58 PANSS
- Beta (PANSS) (CACNA1B rs12352971 allele G): −4.21 PANSS
- Beta (PANSS) (CACNG4 rs7219571 allele A): −5.84 PANSS
- Beta (PANSS) (CAMK2D rs13113625 allele C): −3.68 PANSS
- Beta (PANSS) (CDH13 rs3743621 allele C): −5.54 PANSS
- Beta (PANSS) (CLIC5 rs35822882 allele G): −14.90 PANSS
- Beta (PANSS) (CNTN4 rs1554561 allele T): −4.50 PANSS
- Beta (PANSS) (CNTN4 rs4685501 allele T): −4.63 PANSS
- Beta (PANSS) (CPNE5 rs12194367 allele T): −3.14 PANSS
- Beta (PANSS) (CSMD1 rs2724972 allele G): −4.69 PANSS
- Beta (PANSS) (CSMD1 rs7815861 allele C): −5.06 PANSS
- Beta (PANSS) (DLGAP1 rs498419 allele A): −3.07 PANSS
- Beta (PANSS) (DLGAP1 rs561434 allele A): −4.43 PANSS
- Beta (PANSS) (EHD4 rs1048166 allele C): −3.04 PANSS
- Beta (PANSS) (EHD4 rs1048175 allele C): −3.04 PANSS
- Beta (PANSS) (EML1 rs34198557 allele C): −4.01 PANSS
- Beta (PANSS) (ERBB4 rs7565257 allele A): −3.44 PANSS
- Beta (PANSS) (ERG rs9981408 allele G): −3.15 PANSS
- Beta (PANSS) (EXOC2 rs9405889 allele C): −3.21 PANSS
- Beta (PANSS) (FAM170A rs2162856 allele A): −3.06 PANSS
- Beta (PANSS) (FAM173B rs12652786 allele C): −3.39 PANSS
- Beta (PANSS) (FBN3 rs2287937 allele C): −5.34 PANSS
- Beta (PANSS) (FGF14 rs2390674 allele A): −4.22 PANSS
- Beta (PANSS) (FHIT rs971866 allele A): −5.07 PANSS
- Beta (PANSS) (FMNL2 rs4664113 allele C): −4.25 PANSS
- Beta (PANSS) (FSTL5 rs13127909 allele C): −4.60 PANSS
- Beta (PANSS) (GAN rs1345895 allele A): −3.53 PANSS
- Beta (PANSS) (GAS7 rs9904524 allele G): −4.96 PANSS
- Beta (PANSS) (GPC6 rs9301876 allele A): −4.68 PANSS
- Beta (PANSS) (GRM8 rs17865066 allele A): −7.97 PANSS
- Beta (PANSS) (GRM8 rs17865434 allele C): −7.97 PANSS
- Beta (PANSS) (HTR1B rs11568817 allele G): −3.16 PANSS
- Beta (PANSS) (IFT74 rs4463511 allele C): −3.77 PANSS
- Beta (PANSS) (IL1RAP rs2361835 allele A): −3.93 PANSS
- Beta (PANSS) (IL1RAP rs7642607 allele A): −3.93 PANSS
- Beta (PANSS) (IL1RAP rs7642797 allele A): −3.93 PANSS
- Beta (PANSS) (IL15 rs3806798 allele A): −4.33 PANSS
- Beta (PANSS) (ITPR1 rs11717244 allele C): −3.53 PANSS
- Beta (PANSS) (JPH2 rs2064381 allele A): −3.06 PANSS
- Beta (PANSS) (KAZN rs12130605 allele C): −3.66 PANSS
- Beta (PANSS) (KCND2 rs718805 allele A): −5.26 PANSS
- Beta (PANSS) (KCND2 rs10953911 allele G): −5.26 PANSS
- Beta (PANSS) (KCND2 rs11765060 allele C): −5.30 PANSS
- Beta (PANSS) (KCNH1 rs4282878 allele C): −3.08 PANSS
- Beta (PANSS) (KDM4C rs35389625 allele C): −11.20 PANSS
- Beta (PANSS) (KITLG rs995029 allele C): −7.22 PANSS
- Beta (PANSS) (LDB2 rs872478 allele C): −3.53 PANSS
- Beta (PANSS) (LRP1B rs4591293 allele A): −3.04 PANSS
- Beta (PANSS) (MACROD2 rs461651 allele A): −3.59 PANSS
- Beta (PANSS) (MACROD2 rs6079429 allele A): −4.72 PANSS
- Beta (PANSS) (MAGI2 rs848813 allele C): −4.34 PANSS
- Beta (PANSS) (MAGI2 rs12705833 allele G): −2.87 PANSS
- Beta (PANSS) (MCPH1 rs930557 allele C): −3.78 PANSS
- Beta (PANSS) (MEPE rs3749575 allele A): −8.95 PANSS
- Beta (PANSS) (MTIF3 rs12585587 allele A): −4.37 PANSS
- Beta (PANSS) (NAB1 rs2293765 allele A): −4.60 PANSS
- Beta (PANSS) (NELL1 rs4244549 allele C): −4.96 PANSS
- Beta (PANSS) (NRXN1 rs11885824 allele A): −5.21 PANSS
- Beta (PANSS) (NTRK2 rs1490403 allele A): −3.10 PANSS
- Beta (PANSS) (NTRK2 rs1490407 allele G): −3.00 PANSS
- Beta (PANSS) (NTRK2 rs4142909 allele C): −3.81 PANSS
- Beta (PANSS) (NTSR2 rs7602721 allele C): −4.08 PANSS
- Beta (PANSS) (PARD3B rs17283257 allele A): −3.82 PANSS
- Beta (PANSS) (PCDH15 rs10825137 allele A): −4.89 PANSS
- Beta (PANSS) (PCDH17 rs7319102 allele A): −3.47 PANSS
- Beta (PANSS) (PCP4L1 rs6671288 allele C): −4.15 PANSS
- Beta (PANSS) (PDGFD, DDI1 rs2279789 allele C): −4.42 PANSS
- Beta (PANSS) (PEBP4 rs13271643 allele C): −5.41 PANSS
- Beta (PANSS) (PI4KA, SERPIND1 rs78656 allele C): −7.22 PANSS
- Beta (PANSS) (PKNOX2 rs1044314 allele G): −4.14 PANSS
- Beta (PANSS) (PKP4 rs11680160 allele A): −4.33 PANSS
- Beta (PANSS) (PRDM2 rs6429793 allele A): −3.13 PANSS
- Beta (PANSS) (PSD3 rs7016207 allele C): −6.20 PANSS
- Beta (PANSS) (PTPRT rs6030084 allele A): −2.96 PANSS
- Beta (PANSS) (RASGEF1C rs2278661 allele C): −3.04 PANSS
- Beta (PANSS) (RBFOX1 rs7194775 allele C): −4.37 PANSS
- Beta (PANSS) (RIMS1 rs9446639 allele C): −3.56 PANSS
- Beta (PANSS) (RNF144A rs7605141 allele C): −4.00 PANSS
- Beta (PANSS) (ROBO2 rs4343667 allele C): −4.96 PANSS
- Beta (PANSS) (RORA rs12910376 allele C): −3.38 PANSS
- Beta (PANSS) (SCN3A rs10048748 allele C): −5.44 PANSS
- Beta (PANSS) (SEC16B rs16852158 allele C): −6.45 PANSS
- Beta (PANSS) (SGCZ rs10503525 allele C): −3.05 PANSS
- Beta (PANSS) (SGCZ rs13278000 allele A): −2.91 PANSS
- Beta (PANSS) (SLC6A5 rs1443547 allele A): −3.31 PANSS
- Beta (PANSS) (SLC16A4 rs12126959 allele A): −4.16 PANSS
- Beta (PANSS) (SLC16A9 rs16913940 allele A): −6.05 PANSS
- Beta (PANSS) (SLC35F3 rs12759054 allele C): −3.34 PANSS
- Beta (PANSS) (SPOCK1 rs1051854 allele G): −6.02 PANSS
- Beta (PANSS) (WDR90 rs1057835 allele A): −3.10 PANSS
- Beta (PANSS) (ZNF169 rs9409514 allele C): −3.04 PANSS
